The source made the active and inactive calls. The calls are words filed in the database; no cut-off is given here.
Legend:
RAW264.7 [1] = assay: Antiinflammatory activity in mouse RAW264.7 cells assessed as inhibition of LPS-stimulated nitric oxide production at 10 ug/ml treated for 1 hr before LPS challenge measured after 24 hrs by Griess reagent method; assay type: functional, cell-based
[2] = system: Radical scavenging activity; assay: Antioxidant activity assessed as DPPH radical scavenging activity; assay type: functional
[3] = Antioxidant activity assessed as peroxynitrite radical scavenging activity; assay type: functional
RAW264.7 [4] = assay: Inhibition of NF-kappaB transcriptional activity in LPS-stimulated mouse RAW264.7 cells treated for 1 hr before LPS challenge measured after 6 hrs by luciferase reporter gene assay; assay type: cell-based
RAW264.7 [5] = assay: Antiinflammatory activity in mouse RAW264.7 cells assessed as inhibition of LPS-stimulated nitric oxide production treated for 1 hr before LPS challenge measured after 24 hrs by Griess reagent method; assay type: functional, cell-based
RAW264.7 [6] = assay: Growth inhibition of mouse RAW264.7 cells at 10 ug/ml after 48 hrs by trypan blue exclusion assay; assay type: cell-based; settings: raw264.7, 48 h
RAW264.7 [7] = assay: Cytotoxicity against mouse RAW264.7 cells assessed as reduction of cell viability at 30 ug/ml after 48 hrs by trypan blue exclusion assay; assay type: cell-based; settings: raw264.7, 48 h
RAW264.7 [8] = assay: Antiinflammatory activity in mouse RAW264.7 cells assessed as inhibition of LPS-stimulated iNOS expression treated for 1 hr before LPS challenge measured after 24 hrs by immunoblotting; assay type: functional, cell-based

Row | SMILES | Activity (RAW264.7 [1]) | IC50 [2] [µM] | IC50 [3] [µM] | Activity (RAW264.7 [4]) | Activity (RAW264.7 [5]) | Activity (RAW264.7 [6]) | Activity (RAW264.7 [7]) | Activity (RAW264.7 [8])
1 | O=C(O)c1ccccc1O | inactive | – | – | – | – | – | – | –
2 | O=C(NC1=CC(=O)[C@H]2O[C@H]2[C@H]1O)c1ccccc1O [DEHYDROXYMETHYLEPOXYQUINOMICIN] | – | 57 | 52.6 | Active | – | – | – | –
3 | O=C1C=C(CO)[C@H](O)[C@@H]2O[C@H]12 [PARASITENONE] | Active | – | – | Active | Dose-dependent effect | Active | Active | Dose-dependent effect

Reference: ChEMBL document CHEMBL1155966, “Efficient synthesis of (+/-)-parasitenone, a novel inhibitor of NF-kappaB” (Bioorg Med Chem Lett, 2009)
